These results are taken from patent US8822517B2, “Arylosulfonamides for the treatment of CNS diseases” (Adamed SP. Z O.O., priority 2010, dated 2014).

In assay [1] the target is T1, serotoninergic 5-HT1A receptor (Homo sapiens, UniProt P08908).
T1 sequence (P08908 1-422): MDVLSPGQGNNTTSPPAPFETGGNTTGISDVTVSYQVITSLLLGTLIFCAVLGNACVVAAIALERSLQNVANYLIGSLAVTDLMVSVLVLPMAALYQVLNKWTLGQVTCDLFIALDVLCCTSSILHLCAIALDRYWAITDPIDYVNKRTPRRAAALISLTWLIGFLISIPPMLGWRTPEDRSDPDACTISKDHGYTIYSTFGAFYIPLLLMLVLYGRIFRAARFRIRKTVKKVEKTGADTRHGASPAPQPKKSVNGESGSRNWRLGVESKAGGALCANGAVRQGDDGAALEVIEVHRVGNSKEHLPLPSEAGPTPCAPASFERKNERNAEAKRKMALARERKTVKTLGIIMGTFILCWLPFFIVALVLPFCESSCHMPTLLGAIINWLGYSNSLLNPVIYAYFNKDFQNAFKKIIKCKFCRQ
Put plainly: Binding assay 5-HT1A (h), [3H]8-OH-DPAT, HEK-293 cells. On the set-up: expressed in transfected cells; host or cells: HEK-293 cells. To be noted: read-out: 5-HT1A. The essentials:
(§1)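 Specific ligand binding was taken as total minus non-specific binding, with the latter defined in the presence of surplus unlabelled ligand. Each compound was tested at a single 1×10^−6 M concentration.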

In another assay the test system is adrenergic α1 receptor. Nature of the assay: Binding assay α1 (non-selective), [3H]prazosin, rat cerebral cortex. To be noted: percent inhibition of control specific binding; compounds tested at 1×10^−6 M. The method, boiled down: as §1
Assay [2] addresses T2, serotoninergic 5-HT2A receptor (Homo sapiens, UniProt P28223). Nature of the assay: Binding assay 5-HT2A (h), [3H]ketanserin, HEK-293 cells. On the set-up: expressed in transfected cells; host or cells: HEK-293 cells. To be noted: read-out: 5-HT2A. The method, boiled down: as §1
Another assay deals with T3, adrenergic α2C receptor (Homo sapiens, UniProt P18825).
T3 sequence (P18825 1-462): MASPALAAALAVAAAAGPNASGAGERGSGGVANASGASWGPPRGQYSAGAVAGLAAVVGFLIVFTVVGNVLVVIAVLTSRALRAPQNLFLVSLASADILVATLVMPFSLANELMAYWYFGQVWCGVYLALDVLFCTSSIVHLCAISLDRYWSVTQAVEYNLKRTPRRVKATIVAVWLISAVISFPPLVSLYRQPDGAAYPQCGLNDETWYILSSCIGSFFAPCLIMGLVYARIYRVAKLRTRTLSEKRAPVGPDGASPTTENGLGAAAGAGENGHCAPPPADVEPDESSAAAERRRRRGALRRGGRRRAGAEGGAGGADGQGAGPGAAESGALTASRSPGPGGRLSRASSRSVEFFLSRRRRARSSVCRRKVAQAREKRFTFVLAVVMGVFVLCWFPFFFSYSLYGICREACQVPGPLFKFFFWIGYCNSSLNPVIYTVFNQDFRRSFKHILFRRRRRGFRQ
Nature of the assay: Binding assay α2C (h), [3H]RX 821002, CHO cells. Also noted: expressed in transfected cells; host or cells: CHO cells. As to conditions: read-out: α2C [%]. The method, boiled down: as §1

Assay [3] addresses histaminergic H1 receptor (Homo sapiens, UniProt P35367). Nature of the assay: Cellular functional assay, histaminergic H1 receptor (agonism/antagonism). The class given is cell-based. To be noted: for activation at 1 µM: read-out: H1 -ag [%]; for inhibition at 1 µM: read-out: H1 -antag. [%]. On the procedure: (§2) The compounds were tested at the concentration of 1×10^−6M.
(§3) In the Tables ag refers to agonism, and antag to antagonism).

The target of another assay is dopaminergic D2 receptor (Homo sapiens, UniProt P14416). Nature of the assay: Cellular functional assay, dopaminergic D2 receptor (agonism/antagonism). The class given is cell-based. On the procedure: as §2, §3
Sequence of dopaminergic D2 receptor (P14416 whole entry): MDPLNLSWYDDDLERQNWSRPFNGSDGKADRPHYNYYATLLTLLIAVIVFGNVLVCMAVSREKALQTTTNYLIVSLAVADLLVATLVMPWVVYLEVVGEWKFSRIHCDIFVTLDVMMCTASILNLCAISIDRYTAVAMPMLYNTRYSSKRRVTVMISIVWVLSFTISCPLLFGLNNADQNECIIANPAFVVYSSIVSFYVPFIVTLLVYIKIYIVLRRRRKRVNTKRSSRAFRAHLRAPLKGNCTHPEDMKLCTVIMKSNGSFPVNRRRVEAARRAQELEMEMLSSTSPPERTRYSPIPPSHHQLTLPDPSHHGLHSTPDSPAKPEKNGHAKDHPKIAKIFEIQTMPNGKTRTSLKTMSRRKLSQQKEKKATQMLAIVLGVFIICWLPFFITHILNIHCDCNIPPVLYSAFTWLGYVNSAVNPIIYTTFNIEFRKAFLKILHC
The target of another assay is dopaminergic D3 receptor (Homo sapiens, UniProt P35462). Put plainly: Binding assay D3 (h), [3H]methyl-spiperone, CHO cells. Also noted: expressed in transfected cells; host or cells: CHO cells. To be noted: read-out: D3 [%]. The method, boiled down:
as §1

Assay [4] has as its target T2, serotoninergic 5-HT2A receptor. Nature of the assay: Cellular functional assay, serotoninergic 5-HT2A receptor (agonism/antagonism). The assay is classed as cell-based. To be noted: for activation at 1 µM: read-out: 5-HT2A -ag [%]; for inhibition at 1 µM: read-out: 5-HT2A -antag [%]. The essentials:
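Human receptors tested in cell-based functional format for both agonist and antagonist modes. Single compound concentration of 1×10^−6M.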

For assay [5], the target named is T4, serotoninergic receptor 5-HT2C (Homo sapiens, UniProt P28335).
T4 construct: expressed in transfected cells; host or cells: HEK-293 cells
T4 sequence (P28335 33-458): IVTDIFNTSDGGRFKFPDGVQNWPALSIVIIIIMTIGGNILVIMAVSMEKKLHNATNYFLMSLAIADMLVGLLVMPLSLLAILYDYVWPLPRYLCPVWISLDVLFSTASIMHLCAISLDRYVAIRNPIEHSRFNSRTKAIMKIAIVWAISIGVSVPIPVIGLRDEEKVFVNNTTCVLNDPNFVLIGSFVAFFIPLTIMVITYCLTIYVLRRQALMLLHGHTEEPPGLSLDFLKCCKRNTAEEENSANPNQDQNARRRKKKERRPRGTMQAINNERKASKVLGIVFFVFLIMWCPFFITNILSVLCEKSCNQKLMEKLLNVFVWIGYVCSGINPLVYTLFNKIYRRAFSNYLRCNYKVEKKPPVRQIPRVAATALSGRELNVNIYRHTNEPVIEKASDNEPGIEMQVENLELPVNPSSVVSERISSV
Put plainly: Binding assay 5-HT2C (h), [3H]mesulergine, HEK-293 cells. As to conditions: read-out: 5-HT2C [%]. The essentials:
as §1

The target of assay [6] is serotoninergic 5-HT7 receptor (Homo sapiens, UniProt P34969). Put plainly: Cellular functional assay, serotoninergic 5-HT7 receptor (agonism/antagonism). The class given is cell-based. To be noted: for activation at 1 µM: read-out: 5-HT7-ag [%]; for inhibition at 1 µM: read-out: 5-HT7-antag. [%]. On the procedure:
as §2, §3

The subject of a further assay is sigma σ receptor. Put plainly: Binding assay σ (non-selective), [3H]DTG, rat cerebral cortex. As to conditions: percent inhibition of control specific binding; compounds tested at 1×10^−6 M. The method, boiled down: as §1
The mark [7] stands for this setting: agonist effect, percent of control specific agonist response, compounds tested at 1×10^−6M.
Setting [8] is: HEK293; agonist effect, percent of control specific agonist response (3 μM dopamine for control); 1×10^−6 M; D2S (h), HEK-293 cells; read-out: D2-ag [%].
Where [9] appears, read: HEK293; read-out: D2-antag. [%].

Where two headings read alike, the source gives them in different places.

T2 sequence (P28223 whole entry): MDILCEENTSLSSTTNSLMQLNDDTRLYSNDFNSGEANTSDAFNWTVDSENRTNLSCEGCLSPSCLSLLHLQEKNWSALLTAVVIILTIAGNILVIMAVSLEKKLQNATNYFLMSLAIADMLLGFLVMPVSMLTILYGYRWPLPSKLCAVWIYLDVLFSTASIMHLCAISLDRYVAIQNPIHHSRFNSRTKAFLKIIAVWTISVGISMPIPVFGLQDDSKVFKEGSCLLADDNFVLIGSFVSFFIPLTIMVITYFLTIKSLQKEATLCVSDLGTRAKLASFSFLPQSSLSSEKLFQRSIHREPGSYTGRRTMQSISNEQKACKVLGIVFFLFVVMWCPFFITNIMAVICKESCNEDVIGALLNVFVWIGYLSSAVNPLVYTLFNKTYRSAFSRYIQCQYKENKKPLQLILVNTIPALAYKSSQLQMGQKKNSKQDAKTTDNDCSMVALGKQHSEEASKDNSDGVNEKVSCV
Sequence of dopaminergic D3 receptor (P35462 whole entry): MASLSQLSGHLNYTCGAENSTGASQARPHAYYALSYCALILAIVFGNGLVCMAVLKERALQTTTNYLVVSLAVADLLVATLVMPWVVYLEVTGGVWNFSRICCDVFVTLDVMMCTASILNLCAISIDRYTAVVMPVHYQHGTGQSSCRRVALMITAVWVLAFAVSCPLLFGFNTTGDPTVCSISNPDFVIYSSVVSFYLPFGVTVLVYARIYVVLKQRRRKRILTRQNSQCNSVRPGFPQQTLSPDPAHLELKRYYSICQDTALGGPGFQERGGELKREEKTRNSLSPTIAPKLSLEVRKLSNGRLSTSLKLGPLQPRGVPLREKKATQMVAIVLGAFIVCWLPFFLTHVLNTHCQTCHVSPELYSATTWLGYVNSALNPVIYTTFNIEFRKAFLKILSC
Sequence of histaminergic H1 receptor (P35367 whole entry): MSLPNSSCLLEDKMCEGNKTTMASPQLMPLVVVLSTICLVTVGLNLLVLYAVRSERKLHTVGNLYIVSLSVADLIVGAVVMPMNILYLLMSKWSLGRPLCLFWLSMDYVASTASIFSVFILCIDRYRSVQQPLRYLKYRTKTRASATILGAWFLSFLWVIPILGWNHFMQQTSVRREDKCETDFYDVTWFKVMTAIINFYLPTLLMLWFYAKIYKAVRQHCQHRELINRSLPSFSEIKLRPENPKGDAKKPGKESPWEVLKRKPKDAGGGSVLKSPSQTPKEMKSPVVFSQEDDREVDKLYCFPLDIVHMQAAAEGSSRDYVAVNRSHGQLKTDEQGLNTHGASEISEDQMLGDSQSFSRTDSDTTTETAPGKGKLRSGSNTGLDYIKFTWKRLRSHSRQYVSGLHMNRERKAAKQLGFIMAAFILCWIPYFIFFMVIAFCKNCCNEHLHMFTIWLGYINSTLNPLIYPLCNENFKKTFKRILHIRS
Sequence of serotoninergic 5-HT7 receptor (P34969 whole entry): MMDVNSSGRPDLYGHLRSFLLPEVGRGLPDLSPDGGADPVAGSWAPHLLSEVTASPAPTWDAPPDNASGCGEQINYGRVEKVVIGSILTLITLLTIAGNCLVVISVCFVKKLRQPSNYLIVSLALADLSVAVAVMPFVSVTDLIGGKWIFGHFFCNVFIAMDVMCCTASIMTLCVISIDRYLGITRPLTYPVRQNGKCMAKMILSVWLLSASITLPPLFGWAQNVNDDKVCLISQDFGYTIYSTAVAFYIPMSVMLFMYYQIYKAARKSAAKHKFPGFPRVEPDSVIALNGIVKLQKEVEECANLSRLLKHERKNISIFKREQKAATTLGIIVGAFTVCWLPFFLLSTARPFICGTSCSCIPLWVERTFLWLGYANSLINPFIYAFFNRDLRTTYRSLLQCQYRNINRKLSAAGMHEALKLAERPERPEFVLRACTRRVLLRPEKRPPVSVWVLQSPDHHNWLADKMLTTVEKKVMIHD

On to `O=S(=O)(NCCCCN1CCN(c2noc3ccccc23)CC1)c1cc2ccc(Cl)cc2s1` [Compound 288, N-[4-[4-(1,2-Benzoxazol-3-yl)piperazin-1-yl]butyl]-6-chlorobenzothiophene-2-sulphonamide], for which the inhibition at 1 µM in assay [1] turned out to be 86%; in [2] it was 95%; on adrenergic α2C receptor, 109%; in [3], 57%; at dopaminergic D2 receptor (setting [9]), 79%; at dopaminergic D3 receptor, 102%. Further, the figures for the inhibition at 1 µM in [4], in assay [5] and in [6] were 97%, 32% and 92%, respectively. The “α1 [%]” value in the assay with adrenergic α1 receptor worked out at 94%. In addition, the activation at 1 µM in assay [3] (setting [7]) was 0%; on dopaminergic D2 receptor (setting [8]), 5%; in assay [4], -2%; in [6] (setting [7]) it was -2%. In addition, the “σ [%]” value with sigma σ receptor worked out at 45%.
Take `Cc1cccc(S(=O)(=O)NCCCN2CCN(c3nsc4ccccc34)CC2)c1` [Compound 7, N-(3-(4-(1,2-Benzothiazol-3-yl)piperazin-1-yl)propyl)-3-methylbenzenesulphonamide]: the inhibition at 1 µM turned out to be 99% in assay [1]; 100% in assay [2]; 96% at adrenergic α2C receptor; 70% in assay [3]; 91% at dopaminergic D2 receptor (setting [9]); 97% on dopaminergic D3 receptor. In addition, the inhibition at 1 µM in assay [4] was determined as 100%; in assay [5], 89%; in assay [6] it was 98%. The “α1 [%]” value with adrenergic α1 receptor is reported as 98%. The activation at 1 µM in [3] (setting [7]) is 1%; on dopaminergic D2 receptor (setting [8]) it was 0%; in assay [4] it was 0%; in assay [6] (setting [7]) it was -1%. Besides, the “σ [%]” value with sigma σ receptor is reported as 61%.
Turning to `O=S(=O)(NCCCN1CCC(c2noc3cc(F)ccc23)CC1)c1ccc2cn[nH]c2c1` [Compound 352, N-[3-[4-(6-Fluoro-1,2-benzoxazol-3-yl)piperidin-1-yl]propyl]-1H-indazole-6-sulphonamide], the inhibition at 1 µM in assay [1] stood at 89%; in assay [2] it was 101%; on adrenergic α2C receptor it was 100%; in [3], 60%; on dopaminergic D2 receptor (setting [9]), 88%; at dopaminergic D3 receptor it was 97%. Besides, the inhibition at 1 µM in [4] turned out to be 100%; in assay [5], 78%; in assay [6], 102%. Also, in the assay with adrenergic α1 receptor, the “α1 [%]” value worked out at 99%. The activation at 1 µM is 1% in assay [3] (setting [7]), 12% at dopaminergic D2 receptor (setting [8]), -1% in assay [4] and -2% in assay [6] (setting [7]). In addition, in the assay with sigma σ receptor, the “σ [%]” value is given as 76%.
On to `Cc1c(S(=O)(=O)NCCCCN2CCC(c3noc4cc(F)ccc34)CC2)sc2ccc(F)cc12` [Compound 101, 5-Fluoro-N-[4-[4-(6-fluoro-1,2-benzoxazol-3-yl)piperidin-1-yl]butyl]-3-methylbenzothiophene-2-sulphonamide], for which the inhibition at 1 µM was 82% in [1]; 100% in [2]; 106% on adrenergic α2C receptor; 94% in assay [3]; 85% on dopaminergic D2 receptor (setting [9]); 92% at dopaminergic D3 receptor. The results for the inhibition at 1 µM in assay [4], in assay [5] and in [6] were 100%, 80% and 101%, respectively. In addition, the “α1 [%]” value with adrenergic α1 receptor came to 99%. Further, the activation at 1 µM was 33% in [3] (setting [7]), 6% on dopaminergic D2 receptor (setting [8]), -1% in assay [4] and -2% in [6] (setting [7]). Besides, the “σ [%]” value in the assay with sigma σ receptor is reported as 70%.
In the case of `O=S(=O)(NCCCCN1CCN(c2nsc3ccccc23)CC1)c1ccc2ccccc2c1` [Compound 2, N-(4-(4-(1,2-Benzothiazol-3-yl)piperazin-1-yl)butyl)naphthalene-2-sulphonamide], the inhibition at 1 µM in assay [1] came to 99%; in assay [2], 100%; on adrenergic α2C receptor, 101%; in assay [3], 48%; at dopaminergic D2 receptor (HEK293, read-out: D2-antag. [%]), 97%; at dopaminergic D3 receptor it was 100%. The inhibition at 1 µM in [4] amounted to 102%; in [5], 89%; in assay [6], 80%. In addition, in the assay on adrenergic α1 receptor, the “α1 [%]” value stood at 97%. The activation at 1 µM was -1% in assay [3]; 2% at dopaminergic D2 receptor (HEK293, read-out: D2-ag [%]); 2% in [4]; -1% in [6]. In addition, the “σ [%]” value in the assay with sigma σ receptor was 65%.
Take `O=S(=O)(NCCCCN1CCC(c2noc3cc(F)ccc23)CC1)c1ccc2cc(Cl)ccc2c1` [Compound 97, 6-Chloro-N-[4-[4-(6-fluoro-1,2-benzoxazol-3-yl)piperidin-1-yl]butyl]naphthalene-2-sulphonamide]: the inhibition at 1 µM in [1] stood at 75%; in assay [2] it was 100%; at adrenergic α2C receptor it was 100%; in [3], 57%; on dopaminergic D2 receptor (setting [9]) it was 95%; on dopaminergic D3 receptor, 100%. The inhibition at 1 µM in assay [4] was 102%; in assay [5] it was 89%; in assay [6] it was 100%. The “α1 [%]” value with adrenergic α1 receptor came out at 98%. The activation at 1 µM in assay [3] (setting [7]) was 3%; on dopaminergic D2 receptor (setting [8]), 4%; in assay [4], -3%; in [6] (setting [7]), -2%. The “σ [%]” value with sigma σ receptor stood at 55%.
